Experimental data as given in patent EP4205768A1, “MAGNETIC SOLID LIPID NANOPARTICLES, METHODS AND USES THEREOF” (priority 2021, dated 2023).
pIC50: −log10 of the molar value. Entries after “also recorded” stand apart in the source; their conditions may differ.

How the values were obtained:
Hs578t tumor = test: In ovo (CAM) tumor growth model; assay type: in vivo, chicken; settings: 2xIC50 (DOX concentration), treated at day 13, read at day 17
Description: (§1) (A) In ovo pictures at day 13 of embryo development and in ovo and ex ovo pictures at day 17; representative images were taken at 20x in a Zeiss stereomicroscope. (B) Graphical representation of tumor growth. Data was analyzed by one-way ANOVA and the results are representative for the mean of at least 15 eggs per group;^∗∗∗p<0.0001 ^∗p<0.05. Hs578t cells were used to establish a TNBC chicken egg model. Fertilized eggs were incubated for 9 days and, at this time, the chicken embryo is surrounded by the CAM which provides nutrients for its development. At day 13 of development, the tumor mass could be visualized and the resulting tumors were treated with 2xlC50 EBR85-functionalized nanoparticles (corresponding to DOX concentration). The same concentration of DOX was used for the group treated with DOX alone. Also, a control group treated with DMEM medium was used to evaluate tumorgrowth. […] As observed in Figure 16, a significant reduction on tumor size could be appreciated for the EBR85-treated group, comparing to the control and DOX-treated groups.

chick embryo = test: Toxicity to the embryo in the in ovo model; assay type: in vivo, chicken; settings: 2xIC50 (DOX concentration), throughout the experiment
Description: as §1

[1] = test system: triple negative breast cancer cells (Hs-578T); test: Resazurine cell viability assay, 2D culture, with or without magnetic hyperthermia; assay type: cell-based; settings: Homo sapiens
Description: In an embodiment, 2D- cell culture was prepared. Hs-578T and MBA-MB-231 TNBC cell lines (ATCC HTB-126 and ATCC Htb-26, respectively) were grown in Dulbecco's Modified Eagle's Medium (DMEM) supplemented with 10% foetal bovine serum and 1% penicillin/streptomycin. THP-1 peripheral blood monocytes (ATCC TIB-202) were grown in Gibco Roswell Park Memorial Institute (RPMI) medium supplemented with 10% foetal bovine serum and 1% penicillin/streptomycin. All cell lines were incubated at 37 °C in a 5% CO2 atmosphere.
In an embodiment, cell viability was assessed. The Resazurine assay was used to calculate the cell viability. The assay is based on the reduction by living cells of the oxidized blue dye to a pink fluorescent resorufin product. […] The fluorescence of each condition was then read with an Biotek Synergy H1 plate reader, and compared to the controls using the formula {Viability = (Treated cells−blank)/(Untreated cells−blank) × 100 [formula] }. […] For each, the inhibitory concentration 50 (IC50) of each formulation was calculated using the DRC R-package. […] The activity gain (AG) for the different formulations was calculated as {AGF=100×(IC50^(free DOX) −IC50^mSLNP)/(IC50^(free DOX))} [formula] , whilst the AG of the magnetic hyperthermia event was calculated as {AGMH=100×(IC50^noHT −IC50^HT)/(IC50^noHT)} [formula] . […]

Hs-578T cells = test: Wound-healing (cell migration) assay; assay type: cell-based; settings: at the IC50 DOX concentration, up to 48h
Description: The effect of the functionalized mSLNs AF-2 (EBR85, T-sensitive, +DOX) and AF-3 (EBR89, T-insensitive, -DOX) and reference compound (DOX) on the cell migration capability of Hs-578T cells was assessed through the wound-healing assay. mSLNs (with and without DOX) at the IC50 DOX concentration and equivalent mSLNs were used in the experiment. EBR89 (without DOX) was selected to study the effect of the nanoparticle nature on this tumorigenic feature and evaluate its toxicity. Cell migration and invasion are two hallmarks of cancer correlated to cancer progression and metastasis which correspond to a worse cancer prognosis.
Results are presented as mean ± SD of at least three independent experiments.

Hs-578T polyspheroids = test: 3D polyspheroid growth assay with dual treatment (formulation + AMF); assay type: cell-based; settings: 2 µM relative to DOX + 1h AMF on days 1, 3 and 5; monitored 19 days
Description: In an embodiment, 3D spheroids were prepared. In a 96-well plate was a hot and sterile solution of 1% agarose added (100 µL) and left to cool for 30 min at 4 °C. Then, the plate was tempered and 20000 cancer cells added to each well in 120 µ L of medium. The plate was centrifugated at 800 G during 30 min to promote the formation of the spheroid. The Spheroids were incubated for one week with a medium change every 3 days, until a small dense Spheroid was formed. These spheroids were used in confocal microscopy, or to form poly-spheroids. […]
In an embodiment, growth assay was performed. […] The polyspheroids were monitored every 2 days before treatments or medium change, using an inverted phase-contrast microscope (Nikon Eclipse TS100, Nikon Corporation, Tokyo, Japan) connected to a digital camera (Nikon, DS-Fi1). […] The images were analyzed with image J and R statistical language, using R-packages imager and EBImage, to determine the area of each polyspheroids treated with each condition for every day analyzed. The growth of the polyspheroids were normalized in regards to their own initial area at the start of the experiment, and calculated as { Growth = 100 × (Area−Area^day1)/(Area^day1) [formula] }. The daily growth was calculated as {Growth^daily=(∑Growth)/(19 days)} [formula] . […]

SMILES: COc1cccc2c1C(=O)c1c(O)c3c(c(O)c1C2=O)C[C@@](O)(C(=O)CO)C[C@@H]3O[C@H]1C[C@H](N)[C@H](O)[C@H](C)O1 [DOX, Doxorubicin]
- regression in the tumors' area (Hs578t tumor): 11%
- toxicity to the chick embryo (chick embryo): no toxicity
- pIC50 ([1]; 72h, without magnetic hyperthermia): 5.80
- pIC50 ([1]; Figure 4C experiment, EBR85 with 1h magnetic hyperthermia then 72 h, free DOX as reference): 5.82
- cell migration capability (Hs-578T cells): very low migration capability
- polyspheroid growth (Hs-578T polyspheroids): continued to grow during the first week of treatment; also recorded: slowing down its growth
